Measurements from ChEMBL document CHEMBL2311267, “Design, synthesis and biological evaluation of glucose-containing scutellarein derivatives as neuroprotective agents based on metabolic mechanism of scutellarin in vivo” (Bioorg Med Chem Lett, 2013).
Values after ≈ are worked out from the molar mass of the structure shown.

Columns and labels:
[1] = tested on: Plasma; test: Anticoagulant activity in New Zealand white rabbit platelet-poor plasma assessed as thrombin time at 100 uM; assay type: functional, Oryctolagus cuniculus
[2] = Aqueous solubility of the compound by UV-Vis spectrophotometric analysis; assay type: physicochemical; conditions: water
[3] = tested on: Plasma; test: Anticoagulant activity in New Zealand white rabbit platelet-poor plasma assessed as fibrinogen content at 100 uM; assay type: functional, Oryctolagus cuniculus
[4] = tested on: Plasma; test: Anticoagulant activity in New Zealand white rabbit platelet-poor plasma assessed as prothrombin time at 100 uM; assay type: functional, Oryctolagus cuniculus
[5] = tested on: PC-12; test: Neuroprotective activity in rat PC12 cells assessed as inhibition of H2O2-induced cytotoxicity at 50 uM after 3 hrs by MTT assay relative to control; assay type: functional; conditions: PC-12, 3 h
[6] = tested on: Radical scavenging activity; test: Antioxidant activity assessed as inhibition of DPPH-radical production; assay type: functional
[7] = tested on: Plasma; test: Anticoagulant activity in New Zealand white rabbit platelet-poor plasma assessed as activated partial thromboplastin time at 100 uM; assay type: functional, Oryctolagus cuniculus
[8] = tested on: PC-12; test: Neuroprotective activity in rat PC12 cells assessed as inhibition of H2O2-induced cytotoxicity at 25 uM after 3 hrs by MTT assay relative to control; assay type: functional; conditions: PC-12, 3 h

Row | Compound | TT [1] [s] | solubility [2] [µM] | Activity [3] [g/L] | PT [4] [s] | inhibition at 50 µM [5] [%] | IC50 [6] [µM] | APTT [7] [s] | inhibition at 25 µM [8] [%]
1 | O=c1cc(-c2ccc(O)cc2)oc2cc(O[C@@H]3O[C@H](CO)[C@H](O)[C@H](O)[C@H]3O)c(O)c(O)c12 | 29.17 | 8.93 (≈ 4 µg/mL) | 20.81 | 9.93 | 83.3 | 28.4 | 39.62 | 61
2 | O=C(O)[C@H]1O[C@@H](Oc2cc3oc(-c4ccc(O)cc4)cc(=O)c3c(O)c2O)[C@H](O)[C@@H](O)[C@@H]1O [SCUTELLARIN] | 21.35 | 7.53 (≈ 3.48 µg/mL) | 37.96 | 6.91 | 78.8 | 26.8 | 33.06 | 52.6
3 | O=c1cc(-c2ccc(O)cc2)oc2cc(O[C@@H]3O[C@H](CO)[C@@H](O)[C@H](O)[C@H]3O)c(O)c(O)c12 | 18.13 | 7.85 (≈ 3.52 µg/mL) | 32.43 | 7.81 | 79.9 | 25.3 | 43.06 | 65.5
4 | O=c1cc(-c2ccc(O)cc2)oc2cc(O[C@@H]3O[C@H](CO)[C@@H](O)[C@H](O)[C@@H]3O)c(O)c(O)c12 | 20.54 | 8.19 (≈ 3.67 µg/mL) | 26.68 | 6.57 | 56.4 | 34.9 | 38.2 | 23.5
